The test system of series [1] is C. difficile spores (630Δerm strain). In words: microbe, parasite or virus in culture. The settings on record: Clostridioides difficile, 24 h, read-out: OIC, minimum inhibition concentration for spore outgrowth.
In series [2] the test system is C. difficile spores (R20291 strain). In words: microbe, parasite or virus in culture. Particulars: Clostridioides difficile, 24 h, read-out: OIC, minimum inhibition concentration for spore outgrowth.
For series [3] the test system is unchanged. Kind of series: Viability of spores recovered from OIC assays (spore outplating), strain R20291. The settings on record: for R20291 Mean Spore Viability: CFU post-assay/initial CFU.
The subject of series [4] is C. difficile spores (630Δerm strain). Kind of series: Viability of spores recovered from OIC assays (spore outplating), strain 630Δerm. It is filed as cell-based, Clostridium difficile. Particulars: CFU post-assay/initial CFU. As to the method: Experiments were conducted to determine whether any spores fail to germinate under the conditions of the OIC measurement but remain viable for subsequent germination and outgrowth. Spores were incubated for 24 h in the presence of germinant (taurocholate) and one of the polymers or other agents at multiple concentrations above the OIC. These solutions were then diluted 10 to 100-fold into sterile PBS, and further diluted upon plating onto BHIS agar medium containing germinant to achieve concentrations below the OIC of the relevant antimicrobial agent. Spore survival was calculated as the percentage of colony-forming units retrieved on outgrowth plates relative to the initial spore inoculum (100%).
Samples were diluted and plated onto BHIS medium containing 0.1% taurocholate and enumerated following incubation for at least 24 h at 37° C. Spore survival was calculated as the percentage of CFU post-assay/initial CFU.

Series [5] has the same test system. Particulars: 630Δerm spores; MH broth with taurocholate, 24 h at 37° C.
The test system of series [6] is C. difficile spores (R20291 strain). The settings on record: MH broth with taurocholate, 24 h at 37° C.
The subject of series [7] is human red blood cells (hRBCs).
The mark [8] stands for this setting: Clostridioides difficile, read-out: R20291 Mean Spore Viability.

≈ marks a conversion by molar mass, not a printed value.

With `CN[C@H](CC(C)C)C(=O)N[C@H]1C(=O)N[C@@H](CC(N)=O)C(=O)N[C@H]2C(=O)N[C@H]3C(=O)N[C@H](C(=O)N[C@H](C(=O)O)c4cc(O)cc(O)c4-c4cc3ccc4O)[C@H](O)c3ccc(c(Cl)c3)Oc3cc2cc(c3O[C@@H]2O[C@H](CO)[C@@H](O)[C@H](O)[C@H]2O[C@H]2C[C@](C)(N)[C@H](O)[C@H](C)O2)Oc2ccc(cc2Cl)[C@H]1O` [vancomycin], the MIC in series [1] is above 32 µg/mL. For the same compound, in series [2], the MIC stood at 0.25 µg/mL (≈ 0.173 µM). In series [3] (setting [8]), the viability (commonly a per cent measure of how many cells are alive, often set against a control) at 0.5 µg/mL worked out at 21.1%; the viability at 1 µg/mL came to 7.7%; the viability at 2 µg/mL came out at 3.4%; the viability at 4 µg/mL is 1.3%. In series [3] (setting [8]), the viability at 8 µg/mL amounted to 0.9%.

In the case of `CC[C@H](C)[C@H](NC(=O)[C@H](CCCCN)NC(=O)[C@H](CCC(=O)O)NC(=O)[C@H](CCCCN)NC(=O)[C@H](CO)NC(=O)[C@H](CCCCN)NC(=O)[C@H](CCCNC(=N)N)NC(=O)[C@H](Cc1ccccc1)NC(=O)[C@H](Cc1ccccc1)NC(=O)[C@H](CC(=O)O)NC(=O)CNC(=O)[C@H](CC(C)C)NC(=O)[C@@H](N)CC(C)C)C(=O)NCC(=O)N[C@@H](CCCCN)C(=O)N[C@@H](CCC(=O)O)C(=O)N[C@@H](Cc1ccccc1)C(=O)N[C@@H](CCCCN)C(=O)N[C@@H](CCCNC(=N)N)C(=O)N[C@H](C(=O)N[C@H](C(=O)N[C@@H](CCC(N)=O)C(=O)N[C@@H](CCCNC(=N)N)C(=O)N[C@H](C(=O)N[C@@H](CCCCN)C(=O)N[C@@H](CC(=O)O)C(=O)N[C@@H](Cc1ccccc1)C(=O)N[C@@H](CC(C)C)C(=O)N[C@@H](CCCNC(=N)N)C(=O)N[C@@H](CC(N)=O)C(=O)N[C@@H](CC(C)C)C(=O)N[C@H](C(=O)N1CCC[C@H]1C(=O)N[C@@H](CCCNC(=N)N)C(=O)N[C@H](C(=O)N[C@@H](CCC(=O)O)C(=O)N[C@@H](CO)C(=O)O)[C@@H](C)O)C(C)C)[C@@H](C)CC)C(C)C)[C@@H](C)CC` [LL-37], the “630ΔErm Mean Spore Viability” value is on record as 5.5% (±7.4%) in series [4] (concentration 20 μg/ml), 4.0% (±4.0%) in series [4] (concentration 40 μg/ml) and 7.8% (±3.9%) in series [4] (concentration 80 μg/ml). The “OIC, minimum inhibition concentration for spore outgrowth” value in series [5] was 10 µg/mL; in series [6], 5 µg/mL. The “R20291 Mean Spore Viability” value in series [3] (concentration 10 μg/ml) is reported as 0.4% (±0.7%); in series [3] (concentration 20 μg/ml), 1.2% (±0.7%); in series [3] (concentration 40 μg/ml), 3.6% (±1.8%); in series [3] (concentration 80 μg/ml), 5.8% (±2.9%). The “hemolytic activity (in words)” value in series [7] is on record as “significant hemolytic activity”.

For the origin of these results see patent publication US10463688B2, “Nylon-3 polymers active against Clostridium difficile” (priority 2015, dated 2019).
